Test results: ChEMBL document CHEMBL3868613, “Discovery of new chemical entities as potential leads against Mycobacterium tuberculosis” (Bioorg Med Chem Lett, 2016)
Values after ≈ are worked out from the molar mass of the structure shown.

How the values were obtained:
[1] = test system: Mycobacterium tuberculosis; test: Antitubercular activity against Mycobacterium tuberculosis H37Ra transfected with TYOK plasmid assessed as relative light units after 4 days by selectable marker-free autoluminescent assay; type: functional; details: 96 h
[2] = Cytotoxicity against African green monkey Vero cells assessed as reduction cell survival rate after 72 hrs by CCK8 assay; type: toxicity, cell-based, Chlorocebus sabaeus
[3] = Solubility of the compound; type: physicochemical
[4] = AUC (0 to infinity) in Sprague-Dawley rat at 10 mg/kg, administered through oral gavage by LC/MS analysis; type: ADME, organism-based; design: dose 10 mg/kg, time infinity, route oral; details: in vivo
[5] = AUC (0 to infinity) in Sprague-Dawley rat at 2 mg/kg, iv by LC/MS analysis; type: ADME, organism-based; design: dose 2 mg/kg, time infinity, route intravenous; details: in vivo
[6] = Cmax in Sprague-Dawley rat at 10 mg/kg, administered through oral gavage by LC/MS analysis; type: ADME, organism-based; design: dose 10 mg/kg, route oral; details: in vivo
[7] = Cmax in Sprague-Dawley rat at 2 mg/kg, iv by LC/MS analysis; type: ADME, organism-based; design: dose 2 mg/kg, route intravenous; details: in vivo
[8] = Tmax in Sprague-Dawley rat at 10 mg/kg, administered through oral gavage by LC/MS analysis; type: ADME, organism-based; details: in vivo
[9] = Tmax in Sprague-Dawley rat at 2 mg/kg, iv by LC/MS analysis; type: ADME, organism-based; details: in vivo
[10] = Half life in Sprague-Dawley rat at 10 mg/kg, administered through oral gavage by LC/MS analysis; type: ADME, organism-based; details: in vivo
[11] = Half life in Sprague-Dawley rat at 2 mg/kg, iv by LC/MS analysis; type: ADME, organism-based; details: in vivo
[12] = Clearance in Sprague-Dawley rat at 10 mg/kg, administered through oral gavage by LC/MS analysis; type: ADME, organism-based; details: in vivo
[13] = Clearance in Sprague-Dawley rat at 2 mg/kg, iv by LC/MS analysis; type: ADME, organism-based; details: in vivo
[14] = Oral bioavailability in Sprague-Dawley rat at 10 mg/kg by LC/MS analysis; type: ADME, organism-based; details: in vivo
[15] = test system: Mycobacterium tuberculosis; test: In vivo anti-tubercular activity against Mycobacterium tuberculosis H37Ra transfected with TYOK plasmid infected in BALB/c mouse assessed as decrease in ratio of RLU on day 3 to RLU on day 1 administered QD for 3 days; type: functional, organism-based
[16] = test system: Mycobacterium tuberculosis; test: In vivo anti-tubercular activity against Mycobacterium tuberculosis H37Ra transfected with TYOK plasmid infected in BALB/c mouse assessed as ratio of RLU on day 3 to RLU on day 1 at 2.5 mg/kg/day administered QD for 3 days; type: functional
[17] = test system: Mycobacterium tuberculosis; test: In vivo anti-tubercular activity against Mycobacterium tuberculosis H37Ra transfected with TYOK plasmid infected in BALB/c mouse assessed as ratio of RLU on day 3 to RLU on day 1 at 10 mg/kg/day administered QD for 3 days; type: functional
[18] = test system: Mycobacterium tuberculosis; test: In vivo anti-tubercular activity against Mycobacterium tuberculosis H37Ra transfected with TYOK plasmid infected in BALB/c mouse assessed as ratio of RLU on day 3 to RLU on day 1 at 40 mg/kg/day administered QD for 3 days; type: functional
[19] = test system: Mycobacterium tuberculosis; test: In vivo anti-tubercular activity against Mycobacterium tuberculosis H37Ra transfected with TYOK plasmid infected in BALB/c mouse assessed as increase in ratio of RLU on day 3 to RLU on day 1 at 10 mg/kg/day administered QD for 3 days relative to control; type: functional

Row | SMILES | MIC [1] | IC50 at 72 h [2] | further results
1 | Cc1ccc2[nH]c(C)c(C(=O)NCc3ccc(N4CCC(c5ccc(OC(F)(F)F)cc5)CC4)cc3)c2c1 | 10 µg/mL (≈ 19.2 µM) | – | –
2 | Cc1nn2ccsc2c1C(=O)NCc1ccc(N2CCC(c3ccc(OC(F)(F)F)cc3)CC2)cc1 | 0.3 µg/mL (≈ 0.583 µM) | > 100 µM | –
3 | Cc1nc2scc(C)n2c1C(=O)NCc1ccc(N2CCC(c3ccc(OC(F)(F)F)cc3)CC2)cc1 | 1 µg/mL (≈ 1.89 µM) | > 100 µM | solubility [3]: Insoluble
4 | Cc1cn2c(C(=O)NCc3ccc(N4CCC(c5ccc(OC(F)(F)F)cc5)CC4)cc3)c(C)nc2s1 | 0.01 µg/mL (≈ 0.0189 µM) | > 100 µM | solubility [3]: Insoluble
5 | CO[C@H]1/C=C/O[C@@]2(C)Oc3c(C)c(O)c4c(O)c(c(/C=N/N5CCN(C)CC5)c(O)c4c3C2=O)NC(=O)/C(C)=C\C=C\[C@H](C)[C@H](O)[C@@H](C)[C@@H](O)[C@@H](C)[C@H](OC(C)=O)[C@@H]1C [RIFAMPIN] | 0.003 µg/mL (≈ 0.00365 µM) | – | –
6 | Cc1nn2ccc(=O)[nH]c2c1C(=O)NCc1ccc(N2CCC(c3ccc(OC(F)(F)F)cc3)CC2)cc1 | > 30 µg/mL | – | –
7 | CCc1nc2ccc(Cl)cn2c1C(=O)NCc1ccc(N2CCC(c3ccc(OC(F)(F)F)cc3)CC2)cc1 [TELACEBEC] | 0.003 µg/mL (≈ 0.00539 µM) | – | –
8 | Cc1nn2c(C)csc2c1C(=O)NCc1ccc(N2CCC(c3ccc(OC(F)(F)F)cc3)CC2)cc1 | 0.1 µg/mL (≈ 0.189 µM) | > 100 µM | –
9 | Cc1cn2nc(C)c(C(=O)NCc3ccc(N4CCC(c5ccc(OC(F)(F)F)cc5)CC4)cc3)c2s1 | 0.03 µg/mL (≈ 0.0568 µM) | > 100 µM | AUC(0-inf) [4]: 8560 ng·h/mL; AUC(0-inf) [5]: 4110 ng·h/mL; Cmax [6]: 373 ng/mL; Cmax [7]: 1720 ng/mL; Tmax [8]: 5 h; Tmax [9]: 4.98 min; half-life [10]: 13.4 h; half-life [11]: 14.1 h; CL/F [12]: 20.2 mL/min/kg; clearance [13]: 8.17 mL/min/kg; bioavailability [14]: 41.7%; Activity [15]: Dose-dependent effect; Ratio [16]: 1.05; Ratio [17]: 0.91; Ratio [18]: 0.36
10 | Cc1ccc2oc(C)c(C(=O)NCc3ccc(N4CCC(c5ccc(OC(F)(F)F)cc5)CC4)cc3)c2c1 | > 30 µg/mL | – | –
11 | NNC(=O)c1ccncc1 [ISONIAZID] | 0.1 µg/mL (≈ 0.729 µM) | – | fold change (FC) [19]: 1.25
12 | Cc1ccn2nc(C)c(C(=O)NCc3ccc(N4CCC(c5ccc(OC(F)(F)F)cc5)CC4)cc3)c2n1 | > 30 µg/mL | – | –
13 | Cc1nc2sccn2c1C(=O)NCc1ccc(N2CCC(c3ccc(OC(F)(F)F)cc3)CC2)cc1 | 0.03 µg/mL (≈ 0.0583 µM) | > 100 µM | –
